{"source": "patent US20020151551A1", "about": "“Use of growth hormone secretagogues in conjunction with physical exercise cross reference to related application” (priority 2000, published 2002)", "key": {"[1]": {"test_system": "diet-induced catabolism", "settings": "orally active; cited from earlier work"}, "[2]": {"test_system": "serum insulin-like growth factor-1; quadriceps muscle", "settings": "canines during remobilization; cited from earlier work"}, "[3]": {"test_system": "exercise-induced growth hormone secretion", "assay": "Phase I double-blind, placebo-controlled, multiple dose evaluation: effect on exercise-induced growth hormone secretion (exercise bicycle)", "type": "in vivo, human", "settings": "for growth hormone AUC, End of Treatment, Mean: Day 7, calorically restricted obese subjects; for growth hormone AUC, End of Treatment, Mean / growth hormone AUC, Change, Mean: AUC up to 150 minutes post exercise; for growth hormone AUC, Change, Mean: Day 7 versus screening visit", "protocol": "Phase I Double-Blind, Placebo-Controlled, Multiple Dose Evaluation of Test Compound in Calorically Restricted, Obese Men and Women\nA total of 48 obese subjects, without significant other medical problems and a negative exercise tolerance test, were recruited for this study and placed on a caloric-restricted diet. Subjects had been randomized to either placebo, 3 mg po tid, 6 mg po tid or 10 mg po qam of the test compound, 2-amino-N-[2-(3a-(R)-benzyl-2-methyl-3-oxo-2,3,3a,4,6,7-hexahydro-pyrazolo[4,3-c]pyridin-5-yl)-1-(R)-benzyloxymethyl-2-oxo-ethyl]-isobutyramide, L-tartrate for a total of seven days.\nOne of the objectives of this study was to examine the effect of the test compound on exercise-induced growth hormone secretion. The testing was conducted on an exercise bicycle.\nOne of the efficacy measures of this study was the area under the growth hormone secretory response curve over time (AUC). The above table summarizes the growth hormone AUC values at the screening visit (“Before Treatment”) and at Day 7 (“End of Treatment”) for subjects, who completed exercise at both visits. Also, the AUC values for these subjects were calculated for up to 150 minutes post exercise. The “p-value” in the above table, which is associated with each active treatment group, is derived from comparing each active treatment group with the placebo group, using the two-sample Wilcoxon test."}}}
{"smiles": "CC(C)(N)C(=O)N[C@H](COCc1ccccc1)C(=O)N1CCC2(CC1)CN(S(C)(=O)=O)c1ccccc12", "note": "[MK-677]", "values": [{"measurement": "diet-induced catabolism", "setting": "[1]", "value": "reverses diet-induced catabolism"}, {"measurement": "serum insulin-like growth factor-1 levels", "setting": "[2]", "value": "elevated levels of serum insulin-like growth factor-1"}, {"measurement": "size and strength of the quadriceps muscle", "setting": "[2]", "value": "increased the size and strength of the quadriceps muscle"}]}
{"smiles": "CN1N=C2CCN(C(=O)[C@@H](COCc3ccccc3)NC(=O)C(C)(C)N)C[C@@]2(Cc2ccccc2)C1=O.O=C(O)C(O)C(O)C(=O)O", "note": "[test compound, 2-amino-N-[2-(3a-(R)-benzyl-2-methyl-3-oxo-2,3,3a,4,6,7-hexahydro-pyrazolo[4,3-c]pyridin-5-yl)-1-(R)-benzyloxymethyl-2-oxo-ethyl]-isobutyramide, L-tartrate]", "values": [{"measurement": "growth hormone AUC, End of Treatment, Mean", "setting": "[3]; 3 mg p.o. tid for seven days", "value": 384}, {"measurement": "growth hormone AUC, Change, Mean", "setting": "[3]; 3 mg p.o. tid for seven days", "value": 298}, {"measurement": "growth hormone AUC, End of Treatment, Mean", "setting": "[3]; 6 mg p.o. tid for seven days", "value": 395}, {"measurement": "growth hormone AUC, Change, Mean", "setting": "[3]; 6 mg p.o. tid for seven days", "value": 250}, {"measurement": "growth hormone AUC, End of Treatment, Mean", "setting": "[3]; 10 mg p.o. qam for seven days", "value": 927}, {"measurement": "growth hormone AUC, Change, Mean", "setting": "[3]; 10 mg p.o. qam for seven days", "value": 684}, {"measurement": "effect on exercise-induced growth hormone secretion", "setting": "[3]; overall finding of the study, versus placebo", "value": "augmented exercise-induced growth hormone secretion"}]}
